System: 68A62 CTL
Experiment: CaFlux assay: Ca2+ flux in monolayer of 68A62 CTL
Assay type: cell-based, human
Conditions: FIG. 4A
Procedure: 10^6 cells in 1 ml of PBS were loaded with Fluo-4 (Life Technologies) at 2-4 μM for 30 min at 37° C. in the presence of 0.02% pluoronic acid F-127 and 4 mM Probenecid. The cells were washed free of unreacted reagents and incubated at 37° C. for additional 30 min. The cells were then re-suspended in the assay buffer (Dulbecco's PBS containing 1 mM CaCl2, 2 mM MgCl2, 5 mM glucose, and 0.025% BSA) and used for Ca2+ flux analysis.
Glass bottom of 96 well MatTec plates was covered with poly-L-Lysine (Sigma, mol wt>300,000) at 0.1 mg/ml for 1 hr at room temperature. After washing with DPBS and dd water, TS2/4 non-blocking mAb specific for LFA-1 were added to the plate at concentration 10 μg/ml overnight & 4° C. The wells were washed with DPBS, and 3×10^5 Fluo-4-labeled T cells in 100 μl of the assay buffer were added to each well. The plates were centrifuged for 700 g for one minute and were incubated for 30 min at room temperature prior to the imaging. […] The quality of T cell monolayer was assessed using bright field microscopy.
To identify responding T cells we imaged T-cell monolayers before (background measurement) and after (response) addition of the stimulatory signal such as agonist peptide. […] The average intensity of images prior and after the T-cell stimulation at various time points and the numbers of individual responding cells per imaging field were determined by MetaMorph software.

ILKEPVHGV (IV9)
time to maximum of Ca2+ increase following stimulation: 2 to 3 min

Reference: US11567065B2, “Measuring frequency of pathogen-specific T cells in peripheral blood” (THOMAS JEFFERSON UNIVERSITY, priority 2015, dated 2023)
